This is an account of results in patent US20260226049A1, “NITROGEN-CONTAINING HETEROCYCLIC COMPOUND, PREPARATION METHOD THEREFOR, AND USE THEREOF” (BIVISION PHARMACEUTICALS, INC, priority 2023, published 2026).

In one experiment the target is T1, FAP protein (Homo sapiens, UniProt Q12884).
T1 construct: purchased Sinobiological
T1 sequence (Q12884 1-760): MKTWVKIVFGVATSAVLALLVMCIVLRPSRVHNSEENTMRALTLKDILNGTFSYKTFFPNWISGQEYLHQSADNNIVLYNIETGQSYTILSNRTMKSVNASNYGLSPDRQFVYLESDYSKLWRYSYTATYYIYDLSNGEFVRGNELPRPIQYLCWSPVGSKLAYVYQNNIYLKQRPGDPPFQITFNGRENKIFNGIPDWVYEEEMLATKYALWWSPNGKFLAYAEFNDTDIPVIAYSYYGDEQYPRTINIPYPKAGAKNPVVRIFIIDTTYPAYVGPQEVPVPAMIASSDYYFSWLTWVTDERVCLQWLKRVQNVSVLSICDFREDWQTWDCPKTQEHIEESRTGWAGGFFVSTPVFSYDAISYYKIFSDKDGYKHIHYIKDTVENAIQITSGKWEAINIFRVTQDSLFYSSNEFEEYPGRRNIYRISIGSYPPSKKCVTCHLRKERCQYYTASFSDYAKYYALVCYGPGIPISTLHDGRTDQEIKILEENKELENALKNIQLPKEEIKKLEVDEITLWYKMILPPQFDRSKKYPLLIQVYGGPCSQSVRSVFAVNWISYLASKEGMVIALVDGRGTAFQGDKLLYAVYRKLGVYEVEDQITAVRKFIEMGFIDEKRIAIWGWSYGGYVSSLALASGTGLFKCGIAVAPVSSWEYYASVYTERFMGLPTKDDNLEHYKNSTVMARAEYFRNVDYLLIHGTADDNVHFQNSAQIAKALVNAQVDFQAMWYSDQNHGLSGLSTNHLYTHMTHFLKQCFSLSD
Briefly: Biacore test of ligand binding to FAP protein. The note with it: FAP protein on SA chip, 15° C., 1:1 binding model. As to the method:
The Biacore 8K (Cytiva) instrument was used to detect ligand binding of the FAP protein (Sinobiological). The FAP protein was captured on the SA chip. Before ligand immobilization (flow paths 1 and 2, flow rate of 10 μL/min), the FAP protein (10 μg/mL, flow rate of 5 μL/min, injection time of 600 s) was immobilized on flow path 2 using running buffer, and the sensor surface was conditioned with three consecutive injections of 1 M NaCl in 50 mM NaOH. After each ligand injection, additional washing was carried out with isopropanol in 1 M NaCl and 50 mM NaOH (flow paths 1 and 2, flow rate of 10 μL/min, injection time of 60 s).
The test compounds were dissolved in 100% dimethyl sulfoxide and diluted to 10 mM, then further diluted in the assay buffer (PBS, pH 7.4, 1 mM TCEP ([…]), 0.05% P20, 2% dimethyl sulfoxide) to appropriate maximum concentrations. The analyte was run under the following conditions: analysis temperature=15° C., analysis step=all set to LMW kinetics; cycle type=single cycle (90 s contact time, 1800 s dissociation time, 30 μL/min flow rate, flow channels 1, 2); flow channel detection=2-1). Data evaluation was performed using Biacore Insight Evaluation Software, and the data were fitted to a 1:1 binding model.
The Biacore results are shown in Table 1: pKD=−Log KD, where KD is the binding affinity of the compound to the FAP protein as measured by Biacore. The binding affinity is expressed by KD (M)=Kd(1/s)/Ka(1/Ms). Where A: pKD>8, B: 7<pKD<8, C: 6<pKD<7, D: pKD<6.
(SPR reads the build-up and loss of mass on a sensor chip optically.)

Experiment [1] concerns HT1080 cell line with high FAP expression. Description: Therapeutic experiment of ^177Lu-labeled compounds in tumor-bearing mice. The experiment is classed as in vivo, Balb/c Nude mice. The note with it: for T/C / Tumor volume (mm^3) Group administration Day 14 / TGI^TV (%): 0.8 mCi; for T/C / Tumor volume (mm^3) Group administration Day 14: Day 14; for TGI^TV (%): Day 14, relative tumor inhibition rate; for Tumor volume (mm^3) Before administration: baseline, 0.8 mCi group. As to the method:
Balb/c Nude tumor-bearing mice (supplier: Shanghai Alamo Pharmaceutical Technology Co., Ltd., HT1080 cell line with high FAP expression) aged approximately 6-8 weeks were randomly assigned to 13 experimental groups based on tumor volume, with 5 mice per group. Animal body weight and tumor size were measured, and administration was initiated on the grouping day starting with Group 1 (control group: normal saline). General health and appearance were observed daily after the start of the experiment. Animal body weight and tumor size were measured before each sample collection time point. Any abnormal observations detected during the entire study period were required to be recorded in the raw data.
The synthesized compounds were labeled with ^177Lu and subsequently utilized in the therapeutic assay on mouse tumor models. […] Furthermore, no significant changes in mouse body weight (FIG. 8) were observed throughout the experimental period.
• TGI^TV: Relative tumor inhibition rate (TGI^TV): TGI^TV (%)=[1−(Ti−T0)/(Vi−V0)]×100%; • (Ti: average tumor volume of the treatment group on day i of administration, TO: average tumor volume of the treatment group on day 0 of administration; Vi: average tumor volume of the solvent control group on day i of administration, V0: average tumor volume of the solvent control group on day 0 of administration) • T/C: T/C % is one of the most commonly used indicators for tumor response to treatment: T/C %=T/C*100%; • (T represents the average tumor volume of the treatment group at a specific time point; C represents the average tumor volume of the control group at a specific time point.)
The differences between the treatment groups (tumor volumes of the second, third, fourth, and fifth groups) and the control group (tumor volume of the first group) and between the tumor volumes of the first, third, fourth, and fifth groups and the tumor volume of the second group were analyzed using the two-way ANOVA Fisher's LSD test method. P-values less than 0.05 were considered statistically significant. Both statistical significance and biological significance were taken into account during the result analysis.

As a reminder, the Kd is a measure of binding affinity in units of concentration. The low end stands for tighter binding, the high end for weaker binding. Regarding `N#C[C@@H]1CC(F)(F)CN1C(=O)CNC(=O)c1cc2c(s1)CCN(C(=O)CCC(=O)NCCNC(=O)CCC(C(=O)O)N1CCN(CC(=O)O)CCN(CC(=O)O)CCN(CC(=O)O)CC1)C2` (stereo partly drawn) [JHH3], the dissociation constant (Kd) at FAP protein is less than 10 nM.
Broadly, the T/C is the result in the treated group divided by that in the control group, in per cent. For `N#C[C@@H]1CC(F)(F)CN1C(=O)CNC(=O)c1cccc(C2CCN(C(=O)CCC(=O)NCCNC(=O)CCC(C(=O)O)N3CCN(CC(=O)O)CCN(CC(=O)O)CCN(CC(=O)O)CC3)CC2)c1.[177Lu]` (stereo partly drawn) [^177Lu-JHH9], in experiment [1], the T/C was 30.65%, the “Tumor volume (mm^3) Group administration Day 14” value is listed as 800.87 ± 42.08 mm^3, the “TGI^TV (%)” value turned out to be 72.54% and the “Tumor volume (mm^3) Before administration” value was 155.24 ± 14.81 mm^3.
Turning to `N#C[C@@H]1CC(F)(F)CN1C(=O)CNC(=O)c1cccc(C2CCN(C(=O)CCC(=O)NCC(=O)N3CN(C(=O)CNC(=O)CCC(=O)N4CCC(c5cccc(C(=O)NCC(=O)N6CC(F)(F)C[C@H]6C#N)c5)CC4)CN(C(=O)CNC(=O)CN4CCN(CC(=O)O)CCN(CC(=O)O)CCN(CC(=O)O)CC4)C3)CC2)c1` [JHDB7], on FAP protein, the Kd was 10 to 100 nM.
The same measure, in the same setting: the same measure for `N#C[C@@H]1CC(F)(F)CN1C(=O)CNC(=O)c1ccc2c(c1)CCN(C(=O)CCC(=O)NCC(=O)N1CN(C(=O)CNC(=O)CCC(=O)N3CCc4cc(C(=O)NCC(=O)N5CC(F)(F)C[C@H]5C#N)ccc4C3)CN(C(=O)CNC(=O)CN3CCN(CC(=O)O)CCN(CC(=O)O)CCN(CC(=O)O)CC3)C1)C2` [JHDB6]: less than 10 nM.
`N#C[C@@H]1CC(F)(F)CN1C(=O)CNC(=O)c1ccc2c(c1)CCCN2C(=O)CCC(=O)NCCNC(=O)CCNC(=O)CN1CCN(CC(=O)O)CCN(CC(=O)O)CCN(CC(=O)O)CC1` [JHH13]: the Kd on FAP protein is 10 to 100 nM.
`N#C[C@@H]1CC(F)(F)CC1C(=O)CNC(=O)c1ccc2c(c1)CCN(C(=O)CCC(=O)NCCNC(=O)CCC(C(=O)O)N1CCN(CC(=O)O)CCN(CC(=O)O)CCN(CC(=O)O)CC1)C2` (stereo partly drawn) [JHH6] gave a Kd on FAP protein of 100 to 1000 nM.
The same measure, in the same setting: the same measure for `N#C[C@@H]1CC(F)(F)CN1C(=O)CNC(=O)c1ccc2c(n1)CCN(C(=O)CCC(=O)NCCNC(=O)CCC(C(=O)O)N1CCN(CC(=O)O)CCN(CC(=O)O)CCN(CC(=O)O)CC1)C2` (stereo partly drawn) [JHH2]: 10 to 100 nM; for `C[C@@H](NC(=O)c1ccc(CNC(=O)CCC(=O)NCCCC[C@H](NC(=O)CCC(=O)NCc2ccc(C(=O)N[C@H](C)C(=O)N3CCC[C@H]3B(O)O)cc2)C(=O)NCCOCCNC(=O)CN2CCN(CC(=O)O)CCN(CC(=O)O)CCN(CC(=O)O)CC2)cc1)C(=O)N1CCC[C@H]1B(O)O` [JHDB2]: 100 to 1000 nM; for `C[C@@H]1CC(F)(F)CN1C(=O)CNC(=O)c1ccc2c(c1)CN(C(=O)CCC(=O)NCCNC(=O)CCC(C(=O)O)N1CCN(CC(=O)O)CCN(CC(=O)O)CCN(CC(=O)O)CC1)C2` (stereo partly drawn) [JHH7]: less than 10 nM.
As for `N#C[C@@H]1CC(F)(F)CN1C(=O)CNC(=O)c1cccc2c1CCN(C(=O)CCC(=O)NCCNC(=O)CCC(C(=O)O)N1CCN(CC(=O)O)CCN(CC(=O)O)CCN(CC(=O)O)CC1)C2` (stereo partly drawn) [^177Lu-JHH5, metal not drawn], in experiment [1], the T/C stood at 20.89%, the “Tumor volume (mm^3) Group administration Day 14” value is 545.74 ± 94.21 mm^3, the “TGI^TV (%)” value is 83.08% and the “Tumor volume (mm^3) Before administration” value stood at 148.04 ± 9.78 mm^3.
For `N#C[C@@H]1CC(F)(F)CN1C(=O)CNC(=O)c1cc2c(s1)CCN(C(=O)CCC(=O)NCCNC(=O)CCNC(=O)CN1CCN(CC(=O)O)CCN(CC(=O)O)CCN(CC(=O)O)CC1)C2` [JHH11], the Kd on FAP protein was less than 10 nM.
`C[C@@H](NC(=O)c1cnc2c(c1)CCN(C(=O)CCC(=O)NCCNC(=O)CCC(C(=O)O)N1CCN(CC(=O)O)CCN(CC(=O)O)CCN(CC(=O)O)CC1)C2)C(=O)N1CC(F)(F)C[C@H]1C#N` (stereo partly drawn) [JHM1, 2,2′,2″-(10-(1-carboxy-4-((2-(4-(3-(((R)-1-((S)-2-cyano-4,4-difluoropyrrolidin-1-yl)-1-oxopropan-2-yl)carbamoyl)-5,8-dihydro-1,7-naphthyridin-7 (6H)-yl)-4-oxobutanamido)ethyl)amino)-4-oxobutyl)-1,4,7,10-tetraazacyclododecane-1,4,7-triyl)triacetic acid] gave a dissociation constant Kd on FAP protein of 100 to 1000 nM.
With `N#C[C@@H]1CC(F)(F)CN1C(=O)CNC(=O)c1cccc2c1CCCN2C(=O)CCC(=O)NCCNC(=O)CCC(C(=O)O)N1CCN(CC(=O)O)CCN(CC(=O)O)CCN(CC(=O)O)CC1.[177Lu]` (stereo partly drawn) [^177Lu-JHH10], in experiment [1], the T/C is on record as 19.38%, the “Tumor volume (mm^3) Group administration Day 14” value was 506.26 ± 26.61 mm^3, the “TGI^TV (%)” value amounted to 84.48% and the “Tumor volume (mm^3) Before administration” value is given as 141.47 ± 12.20 mm^3.
As for `N#C[C@@H]1CC(F)(F)CN1C(=O)CNC(=O)c1cccc2c1CCCC2C(=O)CCC(=O)NCCNC(=O)CCNC(=O)CN1CCN(CC(=O)O)CCN(CC(=O)O)CCN(CC(=O)O)CC1` (stereo partly drawn) [JHH14], the “therapeutic effects in mouse tumor model” value in experiment [1] (^177Lu-labeled compound) was “dose-dependent therapeutic effects”.
For `N#C[C@@H]1CC(F)(F)CN1C(=O)CNC(=O)c1cccc2c1CCCC2C(=O)CCC(=O)NCCNC(=O)CCNC(=O)CN1CCN(CC(=O)O)CCN(CC(=O)O)CCN(CC(=O)O)CC1.[177Lu]` (stereo partly drawn) [^177Lu-JHH14], in experiment [1], the T/C is reported as 28.93%, the “Tumor volume (mm^3) Group administration Day 14” value turned out to be 755.85 ± 58.74 mm^3, the “TGI^TV (%)” value came out at 74.39% and the “Tumor volume (mm^3) Before administration” value is given as 153.87 ± 16.47 mm^3.
On to `N#C[C@@H]1CC(F)(F)CN1C(=O)CNC(=O)c1ccnc2c(NC(=O)CCC(=O)NCCNC(=O)CCC(C(=O)O)N3CCN(CC(=O)O)CCN(CC(=O)O)CCN(CC(=O)O)CC3)cccc12.[177Lu]` (stereo partly drawn) [^177Lu-OncoFAP-DOTAGA, reference compound], for which, in experiment [1], the T/C worked out at 32.33%, the “Tumor volume (mm^3) Group administration Day 14” value was determined as 844.66 ± 41.70 mm^3, the “TGI^TV (%)” value is on record as 69.90% and the “Tumor volume (mm^3) Before administration” value worked out at 137.00 ± 12.07 mm^3.
With `O=C(O)CN1CCN(CC(=O)O)CCN(CC(=O)NCc2ccc(C(=O)N[C@H](CO)C(=O)N3CCC[C@H]3B(O)O)cc2)CCN(CC(=O)O)CC1` [JHB1], the Kd on FAP protein was 10 to 100 nM.
Still for that read-out and setting: the same measure for `N#C[C@@H]1CC(F)(F)CN1C(=O)CNC(=O)c1ccc2c(c1)CCN(C(=O)CCC(=O)NCCNC(=O)CCNC(=O)CN1CCN(CC(=O)O)CCN(CC(=O)O)CCN(CC(=O)O)CC1)C2` [JHH12]: less than 10 nM.
